Experimental data taken from patent publication US20250312299A1, “COMPOSITION COMPRISING THIOUREA DERIVATIVE FOR PREVENTION OR TREATMENT OF FIBROTIC DISEASE” (THERASID BIOSCIENCE INC., priority 2022, published 2025).

Legend:
Assay type in all cases: cell-based
[1] = test system: LX2 cells; test: CCK-8 cell viability assay, liver cell line (LX2); conditions: LX2 liver (stellate) cells, 20 μM, 24 hours, CCK-8, FIG. 1
Experimental: LX2 cells, which are liver cells (stellate cells), were seeded at 1×10^4 per well in a 96 well plate, cultured for 24 hours in a 37° C., 5% CO2 incubator, and then treated with the compound of the present invention (TB-840) at a concentration of 20 μM for 24 hours. After culturing for 24 hours, the cells were treated with 10 μl of CCK-8 solution for 2 hours.

[2] = test system: A549 cells; test: CCK-8 cell viability assay, lung cell line (A549); conditions: A549 lung carcinoma cells, 20 μM, 24 hours, CCK-8, FIG. 2
Experimental: A549 cells, which are lung cells (lung carcinoma cells), were seeded at 1.5×10^4 per well in a 96 well plate, cultured for 24 hours in a 37° C., 5% CO2 incubator, and then treated with the compound of the present invention (TB-840) at a concentration of 20 μM for 24 hours. After culturing for 24 hours, the cells were treated with 10 μl of CCK-8 solution for 2 hours.

[3] = test system: HK-2 cells; test: CCK-8 cell viability assay, kidney cell line (HK-2); conditions: HK-2 kidney proximal tubular cells, 20 μM, 24 hours, CCK-8, FIG. 3
Experimental: HK-2 cells, which are kidney cells (proximal tubular cells), were seeded at 1×10^4 per well in a 96 well plate, cultured for 24 hours in a 37° C., 5% CO2 incubator, and then treated with the compound of the present invention (TB-840) at a concentration of 20 μM for 24 hours. After culturing for 24 hours, the cells were treated with 10 μl of CCK-8 solution for 2 hours.

[4] = test system: collagen type 1 (COL1A1); test: RT-qPCR gene expression of COL1A1 in TGF-β treated LX2 cells; conditions: TGF-β 10 ng/ml + compound 20 μM, 24 hours, FIG. 4
Experimental: (§1) In order to confirm the inhibitory effect of the compound of the present invention on the gene expression of fibrosis-related markers, the gene expression of collagen type 1 (type 1 collagen; COL1A1) and fibronectin, which are fibrosis-related markers, was confirmed through RT-qPCR analysis. As a control group, TGF-β (transforming growth factor-β) was used. TGF-β is known to promote the production of extracellular matrix such as collagen and promote fibrosis of tissues.
(§2) LX2 cells were seeded at 3.5×10^5 per well in a 6 well plate, cultured for 24 hours in a 37° C., 5% CO2 incubator, and then treated with TGF-β at a concentration of 10 ng/ml and the compound of the present invention (TB-840) at a concentration of 20 μM, and cultured for 24 hours. After culturing for 24 hours, the cells were washed twice with phosphate buffered saline (PBS), and then RNA extraction was performed using a RNA-spin™ total RNA extraction kit (iNtRON Biotechnology, Cat no. 17211) protocol. Thereafter, the RNA concentration was measured using a Nanodrop device, and cDNA was synthesized using a Maxime™ RT PreMix (iNtRON Biotechnology, Cat no. 25081) and a MiniAmp™ Termal Cycler device. Thereafter, the gene expression levels of COL1A1 and fibronectin were measured using a QuantStudio 5 Real-Time PCR device.

[5] = test system: fibronectin; test: RT-qPCR gene expression of fibronectin in TGF-β treated LX2 cells; conditions: TGF-β 10 ng/ml + compound 20 μM, 24 hours, FIG. 5
Experimental: as §1, §2

[6] = test system: collagen type 1 (COL1A1); test: RT-qPCR gene expression of COL1A1 in TGF-β treated A549 cells; conditions: TGF-β 10 ng/ml + compound 20 μM, 24 hours, FIG. 6
Experimental: as §1
as §2, with “A549” for “LX2”, “2.5×10^5” for “3.5×10^5”

[7] = test system: fibronectin; test: RT-qPCR gene expression of fibronectin in TGF-β treated A549 cells; conditions: TGF-β 10 ng/ml + compound 20 μM, 24 hours, FIG. 7
Experimental: as §1
as §2, with “A549” for “LX2”, “2.5×10^5” for “3.5×10^5”

[8] = test system: collagen type 1 (COL1A1); test: RT-qPCR gene expression of COL1A1 in TGF-β treated HK-2 cells; conditions: TGF-β 10 ng/ml + compound 20 μM, 24 hours, FIG. 8
Experimental: as §1
as §2, with “HK-2” for “LX2”, “2×10^5” for “3.5×10^5”

[9] = test system: fibronectin; test: RT-qPCR gene expression of fibronectin in TGF-β treated HK-2 cells; conditions: TGF-β 10 ng/ml + compound 20 μM, 24 hours, FIG. 9
Experimental: as §1
as §2, with “HK-2” for “LX2”, “2×10^5” for “3.5×10^5”

[10] = test system: collagen type 1 (COL1A1); test: Western blot protein expression of COL1A1 in TGF-β treated LX2 cells; conditions: TGF-β 10 ng/ml + compound 20 μM, 48 hours, FIGS. 10 to 12
Source text: (§3) In order to confirm the inhibitory effect of the compound of the present invention on the protein expression of fibrosis-related markers, the protein expression of collagen type 1 (type 1 collagen; COL1A1) and fibronectin, which are fibrosis-related markers, and HSP60 was confirmed through Western blot analysis. As a control group, TGF-β (transforming growth factor-β) was used. TGF-β is known to promote the production of extracellular matrix such as collagen and promote fibrosis of tissues.
(§4) LX2 cells were seeded at 7.6×10^5 per dish in a 60 φ dish, cultured for 24 hours in a 37° C., 5% CO2 incubator, and then treated with TGF-β at a concentration of 10 ng/ml and the compound of the present invention (TB-840) at a concentration of 20 μM, and cultured for 48 hours. After collecting the cultured cells, the cell pellet was spun down using a centrifuge (13,000 rpm, 5 min, 4° C.) and then lysed by adding lysis buffer with vortexing for 1 hour at 10-minute intervals, and then cell membrane components, etc. were removed using a centrifuge (13,000 rpm, 20 min, 4° C.). The sample was prepared by measuring according to the protocol using a BCA protein assay kit. […] Thereafter, the primary antibody was reacted overnight, and then the secondary antibody was bound, and the protein expression of COL1A1 and fibronectin was measured using an Azure biosystems (C300) device.

[11] = test system: fibronectin; test: Western blot protein expression of fibronectin in TGF-β treated LX2 cells; conditions: TGF-β 10 ng/ml + compound 20 μM, 48 hours, FIGS. 10 to 12
Source text: as §3, §4

[12] = test system: HSP60; test: Western blot protein expression of HSP60 in TGF-β treated LX2 cells; conditions: TGF-β 10 ng/ml + compound 20 μM, 48 hours, FIGS. 10 to 12
Source text: as §3, §4

[13] = test system: collagen type 1 (COL1A1); test: Western blot protein expression of COL1A1 in TGF-β treated A549 cells; conditions: TGF-β 10 ng/ml + compound 20 μM, 24 hours, FIGS. 13 to 15
Source text: as §3
as §4, with “A549” for “LX2”, “2.5×10^5” for “7.6×10^5”, “well” for “dish”, “6 well plate,” for “60 φ dish,”, “24” for “48”

[14] = test system: fibronectin; test: Western blot protein expression of fibronectin in TGF-β treated A549 cells; conditions: TGF-β 10 ng/ml + compound 20 μM, 24 hours, FIGS. 13 to 15
Source text: as §3
as §4, with “A549” for “LX2”, “2.5×10^5” for “7.6×10^5”, “well” for “dish”, “6 well plate,” for “60 φ dish,”, “24” for “48”

[15] = test system: HSP60; test: Western blot protein expression of HSP60 in TGF-β treated A549 cells; conditions: TGF-β 10 ng/ml + compound 20 μM, 24 hours, FIGS. 13 to 15
Source text: as §3
as §4, with “A549” for “LX2”, “2.5×10^5” for “7.6×10^5”, “well” for “dish”, “6 well plate,” for “60 φ dish,”, “24” for “48”

[16] = test system: collagen type 1 (COL1A1); test: Western blot protein expression of COL1A1 in TGF-β treated HK-2 cells; conditions: TGF-β 10 ng/ml + compound 20 μM, 48 hours, FIGS. 16 to 18
Source text: as §3
as §4, with “HK-2” for “LX2”, “1×10^6” for “7.6×10^5”

[17] = test system: fibronectin; test: Western blot protein expression of fibronectin in TGF-β treated HK-2 cells; conditions: TGF-β 10 ng/ml + compound 20 μM, 48 hours, FIGS. 16 to 18
Source text: as §3
as §4, with “HK-2” for “LX2”, “1×10^6” for “7.6×10^5”

[18] = test system: HSP60; test: Western blot protein expression of HSP60 in TGF-β treated HK-2 cells; conditions: TGF-β 10 ng/ml + compound 20 μM, 48 hours, FIGS. 16 to 18
Source text: as §3
as §4, with “HK-2” for “LX2”, “1×10^6” for “7.6×10^5”

CNC(=S)NCc1ccc(OCc2ccccc2)cc1 [TB-840, 1-(4-benzyloxy-benzyl)-3-methyl-thiourea]
cell viability [1]: ~100%
cell viability [2]: ~100%
cell viability [3]: ~100%
gene expression of COL1A1 compared to the group treated with TGF-β [4]: reduced
gene expression of fibronectin compared to the group treated with TGF-β [5]: reduced
gene expression of COL1A1 compared to the group treated with TGF-β [6]: reduced
gene expression of fibronectin compared to the group treated with TGF-β [7]: reduced
gene expression of COL1A1 compared to the group treated with TGF-β [8]: reduced
gene expression of fibronectin compared to the group treated with TGF-β [9]: reduced
protein expression of COL1A1 compared to the group treated with TGF-β [10]: reduced
protein expression of fibronectin compared to the group treated with TGF-β [11]: reduced
protein expression of HSP60 [12]: no change
protein expression of COL1A1 compared to the group treated with TGF-β [13]: reduced
protein expression of fibronectin compared to the group treated with TGF-β [14]: reduced
protein expression of HSP60 [15]: no change
protein expression of COL1A1 compared to the group treated with TGF-β [16]: reduced
protein expression of fibronectin compared to the group treated with TGF-β [17]: reduced
protein expression of HSP60 [18]: no change
